Experimental data published in PubChem BioAssay AID330 (DTP/NCI, 2004).
“And” between values parts separate entries of the source, which are not always exact repeats. Equal entries are not always repeated. Toxic doses and inconclusive results are not listed. Rule for the calls: active = survival T/C of 150% or more; inactive = T/C below 125% in these data.

Tested on: P388 leukemia ip, CD2F1 mice, survival T/C
Assay: NCI In Vivo Anticancer Drug Screen. Data for tumor model P388 Leukemia (intraperitoneal) in CD2F1 (CDF1) mice
Details: endpoint: median survival time, higher = longer survival
Method in brief: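 Mice carrying the transplanted tumor received test compound or vehicle. Survival was recorded in each group, and the value is the treated-group measurement divided by that of the vehicle-treated control group.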

[1] = dose: 60.0 mg/kg/injection, schedule: Q01DX005 (ip), vehicle: saline with Tween-80
[2] = dose: 120.0 mg/kg/injection, schedule: Q01DX005 (ip), vehicle: saline with Tween-80
[3] = dose: 240.0 mg/kg/injection, schedule: Q01DX005 (ip), vehicle: saline with Tween-80
[4] = dose: 25.0 mg/kg/injection, schedule: Q01DX005 (ip), vehicle: Klucel (hydroxypropylcellulose) (HPC)
[5] = dose: 50.0 mg/kg/injection, schedule: Q01DX005 (ip), vehicle: Klucel (hydroxypropylcellulose) (HPC)
[6] = dose: 50.0 mg/kg/injection, schedule: Q01DX009 (ip), vehicle: saline with Tween-80
[7] = dose: 100.0 mg/kg/injection, schedule: Q01DX009 (ip), vehicle: saline with Tween-80
[8] = dose: 200.0 mg/kg/injection, schedule: Q01DX009 (ip), vehicle: saline with Tween-80
[9] = dose: 50.0 mg/kg/injection, schedule: Q01DX009 (ip), vehicle: saline
[10] = dose: 6.25 mg/kg/injection, schedule: Q01DX009 (ip), vehicle: saline with Tween-80
[11] = dose: 12.5 mg/kg/injection, schedule: Q01DX009 (ip), vehicle: saline with Tween-80
[12] = dose: 25.0 mg/kg/injection, schedule: Q01DX009 (ip), vehicle: saline with Tween-80
[13] = dose: 100.0 mg/kg/injection, schedule: Q01DX005 (ip), vehicle: Klucel (hydroxypropylcellulose) (HPC)

Measured: T/C

COc1cc(C(c2cc3c(cc2O)OCO3)N2CCCC2)cc(OC)c1OC (stereo unspecified)
inactive: dose: 60.0 mg/kg/injection, schedule: Q01DX005 (ip), vehicle: Klucel (hydroxypropylcellulose) (HPC) 118 % of control | dose: 120.0 mg/kg/injection, schedule: Q01DX005 (ip), vehicle: Klucel (hydroxypropylcellulose) (HPC) 106 % of control | dose: 240.0 mg/kg/injection, schedule: Q01DX005 (ip), vehicle: Klucel (hydroxypropylcellulose) (HPC) 101 % of control

CC(C)C(NC(=O)C(=O)c1c[nH]c2ccc(Cl)cc12)C(=O)O (stereo unspecified)
inactive: [1] 100 % of control | [2] 91 % of control | [3] 90 % of control

CC(C)NCCCNCC(=O)Nc1ccc(S(=O)(=O)c2ccc(NC(=O)CNCCCNC(C)C)cc2)cc1
inactive: dose: 12.5 mg/kg/injection, schedule: Q01DX005 (ip), vehicle: Klucel (hydroxypropylcellulose) (HPC) 104 % of control | [4] 102 % of control | [5] 103 % of control

CCC(c1ccc(OC)cc1)C(CC)c1ccc(O)c(CN(C)C)c1 (stereo unspecified)
inactive: [1] 94 % of control | [2] 92 % of control | [3] 92 % of control

CC(=O)n1ccc(=O)[nH]c1=O
inactive: [6] 87 % of control | [7] 96 % of control | dose: 100.0 mg/kg/injection, schedule: Q04DX003 (ip), vehicle: saline with Tween-80 100 % of control | [8] 96 % of control | dose: 200.0 mg/kg/injection, schedule: Q04DX003 (ip), vehicle: saline with Tween-80 96 % of control | dose: 400.0 mg/kg/injection, schedule: Q04DX003 (ip), vehicle: saline with Tween-80 96 % of control

Cc1ccc2cccc(CC(=O)NN)c2c1
inactive: [1] 104 % of control | [2] 97 % of control

Cc1noc(NS(=O)(=O)c2ccc(N=c3c4ccccc4n(-c4ccccc4)c4ccccc34)cc2)c1C
inactive: dose: 50.0 mg/kg/injection, schedule: Q01DX005 (ip), vehicle: saline with Tween-80 97 % of control | dose: 100.0 mg/kg/injection, schedule: Q01DX005 (ip), vehicle: saline with Tween-80 100 % of control

C[CH2][Sn]([CH2]C)([N](c1ccccn1)c1ccccn1)[N](c1ccccn1)c1ccccn1
inactive: dose: 1.56 mg/kg/injection, schedule: Q01DX005 (ip), vehicle: Klucel (hydroxypropylcellulose) (HPC) 123 % of control | dose: 3.12 mg/kg/injection, schedule: Q01DX005 (ip), vehicle: Klucel (hydroxypropylcellulose) (HPC) 119 % of control | dose: 6.25 mg/kg/injection, schedule: Q01DX005 (ip), vehicle: Klucel (hydroxypropylcellulose) (HPC) 116 % of control and 123 % of control

Cc1ccc2c(c1)C(=O)n1cccc1C(O)N2 (stereo unspecified)
inactive: dose: 0.1 mg/kg/injection, schedule: Q01DX005 (ip), vehicle: water 100 % of control | dose: 0.2 mg/kg/injection, schedule: Q01DX005 (ip), vehicle: water 99 % of control | dose: 0.4 mg/kg/injection, schedule: Q01DX005 (ip), vehicle: water 99 % of control | dose: 0.8 mg/kg/injection, schedule: Q01DX005 (ip), vehicle: water 98 % of control | dose: 1.6 mg/kg/injection, schedule: Q01DX005 (ip), vehicle: water 89 % of control | dose: 5.0 mg/kg/injection, schedule: Q01DX005 (ip), vehicle: distilled water + Tween-80 98 % of control | dose: 10.0 mg/kg/injection, schedule: Q01DX005 (ip), vehicle: distilled water + Tween-80 95 % of control | dose: 20.0 mg/kg/injection, schedule: Q01DX005 (ip), vehicle: distilled water + Tween-80 92 % of control | dose: 40.0 mg/kg/injection, schedule: Q01DX005 (ip), vehicle: distilled water + Tween-80 98 % of control | dose: 80.0 mg/kg/injection, schedule: Q01DX005 (ip), vehicle: distilled water + Tween-80 92 % of control

COc1ccc(C#N)cc1OC
inactive: dose: 6.25 mg/kg/injection, schedule: Q01DX009 (ip), vehicle: saline 99 % of control | dose: 12.5 mg/kg/injection, schedule: Q01DX009 (ip), vehicle: saline 108 % of control | dose: 25.0 mg/kg/injection, schedule: Q01DX009 (ip), vehicle: saline 92 % of control | [9] 92 % of control

NC(CS)C(=O)O (stereo unspecified) (tested in a mixture with another compound)
inactive: dose: 3.12 mg/kg/injection, schedule: Q01DX009 (ip), vehicle: suspension in saline 90 % of control | dose: 6.25 mg/kg/injection, schedule: Q01DX009 (ip), vehicle: suspension in saline 107 % of control | dose: 12.5 mg/kg/injection, schedule: Q01DX009 (ip), vehicle: suspension in saline 110 % of control | dose: 25.0 mg/kg/injection, schedule: Q01DX009 (ip), vehicle: suspension in saline 110 % of control

Cc1ccc(C(=O)[Se][Se]C(=O)c2ccc(C)cc2)cc1
inactive: [10] 98 % of control | [11] 117 % of control | [12] 104 % of control and 112 % of control

c1ccc(SCCOCCOCCSc2ccccn2)nc1
inactive: [4] 103 % of control | [5] 108 % of control | [13] 111 % of control

CC(=O)ON1C(=O)C=CC1=O
inactive: dose: 0.78 mg/kg/injection, schedule: Q01DX009 (ip), vehicle: water 109 % of control | dose: 1.56 mg/kg/injection, schedule: Q01DX009 (ip), vehicle: water 101 % of control | dose: 3.13 mg/kg/injection, schedule: Q01DX009 (ip), vehicle: water 104 % of control and 87 % of control | dose: 6.25 mg/kg/injection, schedule: Q01DX009 (ip), vehicle: water 104 % of control and 86 % of control | dose: 12.5 mg/kg/injection, schedule: Q01DX009 (ip), vehicle: water 109 % of control and 90 % of control

O=Cc1c(Cl)n(C(=O)c2ccc(F)cc2)c2ccccc12
inactive: dose: 100.0 mg/kg/injection, schedule: Q01DX001 (ip), vehicle: Klucel (hydroxypropylcellulose) (HPC) 97 % of control | dose: 200.0 mg/kg/injection, schedule: Q01DX001 (ip), vehicle: Klucel (hydroxypropylcellulose) (HPC) 113 % of control | dose: 400.0 mg/kg/injection, schedule: Q01DX001 (ip), vehicle: Klucel (hydroxypropylcellulose) (HPC) 96 % of control

CCCCCCCCCCCCCCCCC/C=C1\CC(=O)OC1=O
inactive: [12] 103 % of control | [6] 97 % of control | [7] 89 % of control

O=Nc1ccc(NO)cc1
inactive: dose: 25.0 mg/kg/injection, schedule: Q04DX003 (ip), vehicle: Klucel (hydroxypropylcellulose) (HPC) 110 % of control | dose: 50.0 mg/kg/injection, schedule: Q04DX003 (ip), vehicle: Klucel (hydroxypropylcellulose) (HPC) 108 % of control | dose: 100.0 mg/kg/injection, schedule: Q04DX003 (ip), vehicle: Klucel (hydroxypropylcellulose) (HPC) 103 % of control | dose: 200.0 mg/kg/injection, schedule: Q04DX003 (ip), vehicle: Klucel (hydroxypropylcellulose) (HPC) 110 % of control | dose: 400.0 mg/kg/injection, schedule: Q04DX003 (ip), vehicle: Klucel (hydroxypropylcellulose) (HPC) 88 % of control

COc1ccc(C(O)C2CCCN(c3ccccc3)S2(=O)=O)cc1 (stereo unspecified)
inactive: dose: 100.0 mg/kg/injection, schedule: Q01DX001 (ip), vehicle: saline with Tween-80 101 % of control | dose: 200.0 mg/kg/injection, schedule: Q01DX001 (ip), vehicle: saline with Tween-80 94 % of control | dose: 400.0 mg/kg/injection, schedule: Q01DX001 (ip), vehicle: saline with Tween-80 98 % of control

CCOC(=O)c1ccc(NCc2ccc(CNc3ccc(C(=O)OCC)cc3)cc2)cc1
inactive: [10] 105 % of control | [11] 103 % of control | [12] 94 % of control | [6] 89 % of control | [7] 89 % of control

CC(=O)O[C@H]1CC[C@]2(C=O)[C@H]3CC[C@]4(C)[C@@H](C5=CC(=O)OC5)CC[C@]4(O)[C@@H]3CC[C@]2(O)C1
inactive: dose: 12.5 mg/kg/injection, schedule: Q04DX002 (ip), vehicle: saline 94 % of control | dose: 25.0 mg/kg/injection, schedule: Q04DX002 (ip), vehicle: saline 94 % of control | dose: 50.0 mg/kg/injection, schedule: Q04DX002 (ip), vehicle: saline 100 % of control | dose: 100.0 mg/kg/injection, schedule: Q04DX002 (ip), vehicle: saline 91 % of control

O=C1CC(c2ccccc2)=NN1c1ccccc1
inactive: [5] 101 % of control | [13] 99 % of control | dose: 200.0 mg/kg/injection, schedule: Q01DX005 (ip), vehicle: Klucel (hydroxypropylcellulose) (HPC) 95 % of control

Cn1ccn(C)c1=S
inactive: [9] 107 % of control | dose: 100.0 mg/kg/injection, schedule: Q01DX009 (ip), vehicle: saline 97 % of control | dose: 200.0 mg/kg/injection, schedule: Q01DX009 (ip), vehicle: saline 101 % of control

O=C(CSc1ncnc2nc[nH]c12)c1ccccc1
inactive: [6] 90 % of control | [7] 100 % of control | [8] 105 % of control
